Calls of active or inactive are those of the source.
Columns and labels:
[1] = biological target: T1, Short transient receptor potential channel 4 (Mus musculus, UniProt Q9QUQ5); test: TRPC4 positive allosteric modulators, dose response, cell-based, HEK293 TRPC4/mu-opioid, Fluo-4 calcium, EC20 DAMGO (AID 434941); assay type: functional
T1 sequence (Q9QUQ5 whole entry): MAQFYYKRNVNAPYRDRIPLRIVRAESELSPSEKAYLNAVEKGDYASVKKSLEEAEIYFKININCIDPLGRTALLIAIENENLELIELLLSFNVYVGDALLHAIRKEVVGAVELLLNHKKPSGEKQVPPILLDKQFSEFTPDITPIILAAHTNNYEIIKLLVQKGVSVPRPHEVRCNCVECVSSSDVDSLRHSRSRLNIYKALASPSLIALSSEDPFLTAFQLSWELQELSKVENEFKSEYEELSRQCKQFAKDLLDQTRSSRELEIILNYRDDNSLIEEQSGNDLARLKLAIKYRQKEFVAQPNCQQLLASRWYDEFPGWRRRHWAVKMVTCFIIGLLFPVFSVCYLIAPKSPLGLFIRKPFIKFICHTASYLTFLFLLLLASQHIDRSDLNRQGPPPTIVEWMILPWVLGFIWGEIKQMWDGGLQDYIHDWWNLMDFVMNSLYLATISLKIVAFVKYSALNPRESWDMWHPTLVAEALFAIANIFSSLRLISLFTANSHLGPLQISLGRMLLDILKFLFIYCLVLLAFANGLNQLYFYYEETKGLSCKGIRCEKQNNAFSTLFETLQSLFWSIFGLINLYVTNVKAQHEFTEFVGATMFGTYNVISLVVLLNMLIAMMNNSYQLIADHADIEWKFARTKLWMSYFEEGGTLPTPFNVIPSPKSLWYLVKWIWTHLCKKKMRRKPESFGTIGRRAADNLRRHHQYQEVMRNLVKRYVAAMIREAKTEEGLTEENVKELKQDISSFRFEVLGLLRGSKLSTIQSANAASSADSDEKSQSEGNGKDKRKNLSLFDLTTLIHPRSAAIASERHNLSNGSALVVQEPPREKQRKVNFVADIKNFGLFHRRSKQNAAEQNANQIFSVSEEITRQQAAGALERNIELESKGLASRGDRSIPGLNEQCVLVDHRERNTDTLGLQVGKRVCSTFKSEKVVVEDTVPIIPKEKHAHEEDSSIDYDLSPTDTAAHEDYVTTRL

[2] = biological target: Envelope glycoprotein gp160 (Human immunodeficiency virus 1, UniProt Q6QLK5); test: inhibitors of HIV fusion peptide binding, primary screen, biochemical, uHTS, fluorescence dequenching (AID 1986)
[3] = biological target: T2, Tyrosine-protein phosphatase non-receptor type 7 (Homo sapiens, UniProt P35236); assay type: functional
T2 sequence (P35236 whole entry): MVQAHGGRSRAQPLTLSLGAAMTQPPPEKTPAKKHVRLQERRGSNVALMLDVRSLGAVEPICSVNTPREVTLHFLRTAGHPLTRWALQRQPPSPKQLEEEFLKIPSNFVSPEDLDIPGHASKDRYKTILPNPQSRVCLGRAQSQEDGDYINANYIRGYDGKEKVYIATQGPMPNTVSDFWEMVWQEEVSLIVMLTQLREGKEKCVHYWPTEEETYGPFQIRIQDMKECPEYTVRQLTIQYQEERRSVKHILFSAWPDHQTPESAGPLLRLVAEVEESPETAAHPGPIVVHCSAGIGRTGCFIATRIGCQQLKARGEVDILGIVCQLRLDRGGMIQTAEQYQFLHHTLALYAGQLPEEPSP

[4] = biological target: T3, Voltage-gated N-type calcium channel alpha-1B subunit/Amyloid beta A4 precursor protein-binding family A member 1 (Homo sapiens, UniProt Q00975+Q02410); assay type: protein assay
T3 sequence (Q00975 whole entry): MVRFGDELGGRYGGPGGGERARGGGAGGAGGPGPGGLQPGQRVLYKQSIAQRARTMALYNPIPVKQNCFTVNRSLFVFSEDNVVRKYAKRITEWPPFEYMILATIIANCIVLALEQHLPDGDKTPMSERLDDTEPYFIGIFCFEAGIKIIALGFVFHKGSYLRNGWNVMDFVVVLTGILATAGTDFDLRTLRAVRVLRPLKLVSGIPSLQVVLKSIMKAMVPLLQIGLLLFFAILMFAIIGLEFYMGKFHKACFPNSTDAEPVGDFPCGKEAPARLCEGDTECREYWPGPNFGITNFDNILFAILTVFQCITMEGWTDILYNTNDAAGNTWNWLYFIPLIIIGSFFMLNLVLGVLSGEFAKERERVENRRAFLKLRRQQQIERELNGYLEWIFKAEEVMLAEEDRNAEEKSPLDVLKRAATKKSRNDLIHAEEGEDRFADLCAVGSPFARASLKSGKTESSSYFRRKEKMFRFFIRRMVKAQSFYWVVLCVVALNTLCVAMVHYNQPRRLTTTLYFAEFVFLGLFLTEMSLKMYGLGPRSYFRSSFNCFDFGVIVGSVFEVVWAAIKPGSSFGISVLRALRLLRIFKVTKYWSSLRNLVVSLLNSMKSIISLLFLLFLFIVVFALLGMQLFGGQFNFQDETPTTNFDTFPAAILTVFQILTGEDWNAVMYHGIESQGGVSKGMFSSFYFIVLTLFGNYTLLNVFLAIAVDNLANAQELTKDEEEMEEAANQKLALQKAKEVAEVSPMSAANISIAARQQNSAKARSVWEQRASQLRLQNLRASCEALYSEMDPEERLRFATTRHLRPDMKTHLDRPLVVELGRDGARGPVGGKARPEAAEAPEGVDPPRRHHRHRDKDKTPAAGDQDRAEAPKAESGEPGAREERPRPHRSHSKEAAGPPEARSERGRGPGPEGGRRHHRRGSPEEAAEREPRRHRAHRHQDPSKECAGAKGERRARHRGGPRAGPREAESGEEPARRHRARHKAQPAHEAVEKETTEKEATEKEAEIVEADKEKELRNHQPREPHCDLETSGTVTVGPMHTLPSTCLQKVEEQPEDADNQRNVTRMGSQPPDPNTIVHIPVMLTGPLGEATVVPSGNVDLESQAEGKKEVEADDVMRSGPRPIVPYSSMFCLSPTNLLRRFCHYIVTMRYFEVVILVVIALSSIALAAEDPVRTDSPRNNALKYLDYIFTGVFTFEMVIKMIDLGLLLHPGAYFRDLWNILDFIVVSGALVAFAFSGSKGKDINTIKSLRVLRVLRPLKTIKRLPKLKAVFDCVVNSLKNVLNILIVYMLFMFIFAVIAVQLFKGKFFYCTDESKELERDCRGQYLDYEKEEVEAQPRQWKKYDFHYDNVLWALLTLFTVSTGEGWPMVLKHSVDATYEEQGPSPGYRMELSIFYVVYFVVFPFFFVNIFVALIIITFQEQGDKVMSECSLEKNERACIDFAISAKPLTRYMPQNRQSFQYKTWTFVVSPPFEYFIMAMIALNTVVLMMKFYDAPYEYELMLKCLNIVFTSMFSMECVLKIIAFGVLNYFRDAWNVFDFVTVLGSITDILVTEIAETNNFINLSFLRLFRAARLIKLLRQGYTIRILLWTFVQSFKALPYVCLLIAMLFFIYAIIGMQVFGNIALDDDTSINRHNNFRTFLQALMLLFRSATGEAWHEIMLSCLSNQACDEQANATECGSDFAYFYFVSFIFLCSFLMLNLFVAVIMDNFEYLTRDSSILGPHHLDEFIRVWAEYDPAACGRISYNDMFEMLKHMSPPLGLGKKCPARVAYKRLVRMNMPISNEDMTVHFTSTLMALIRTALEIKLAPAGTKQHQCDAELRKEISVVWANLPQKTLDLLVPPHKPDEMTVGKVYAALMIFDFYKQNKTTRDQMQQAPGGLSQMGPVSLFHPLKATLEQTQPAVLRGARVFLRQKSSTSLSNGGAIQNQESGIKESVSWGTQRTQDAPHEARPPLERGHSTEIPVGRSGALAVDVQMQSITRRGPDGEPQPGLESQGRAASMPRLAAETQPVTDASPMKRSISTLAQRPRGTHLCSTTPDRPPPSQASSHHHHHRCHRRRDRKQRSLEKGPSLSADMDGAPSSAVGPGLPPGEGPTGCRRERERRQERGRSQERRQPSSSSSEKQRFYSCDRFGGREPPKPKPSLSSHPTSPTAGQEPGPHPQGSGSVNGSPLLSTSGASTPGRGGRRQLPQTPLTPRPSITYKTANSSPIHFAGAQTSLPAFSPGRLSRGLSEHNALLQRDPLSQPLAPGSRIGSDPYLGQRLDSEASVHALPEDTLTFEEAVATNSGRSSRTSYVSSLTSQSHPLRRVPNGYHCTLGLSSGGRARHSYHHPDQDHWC
T3 sequence (Q02410 whole entry): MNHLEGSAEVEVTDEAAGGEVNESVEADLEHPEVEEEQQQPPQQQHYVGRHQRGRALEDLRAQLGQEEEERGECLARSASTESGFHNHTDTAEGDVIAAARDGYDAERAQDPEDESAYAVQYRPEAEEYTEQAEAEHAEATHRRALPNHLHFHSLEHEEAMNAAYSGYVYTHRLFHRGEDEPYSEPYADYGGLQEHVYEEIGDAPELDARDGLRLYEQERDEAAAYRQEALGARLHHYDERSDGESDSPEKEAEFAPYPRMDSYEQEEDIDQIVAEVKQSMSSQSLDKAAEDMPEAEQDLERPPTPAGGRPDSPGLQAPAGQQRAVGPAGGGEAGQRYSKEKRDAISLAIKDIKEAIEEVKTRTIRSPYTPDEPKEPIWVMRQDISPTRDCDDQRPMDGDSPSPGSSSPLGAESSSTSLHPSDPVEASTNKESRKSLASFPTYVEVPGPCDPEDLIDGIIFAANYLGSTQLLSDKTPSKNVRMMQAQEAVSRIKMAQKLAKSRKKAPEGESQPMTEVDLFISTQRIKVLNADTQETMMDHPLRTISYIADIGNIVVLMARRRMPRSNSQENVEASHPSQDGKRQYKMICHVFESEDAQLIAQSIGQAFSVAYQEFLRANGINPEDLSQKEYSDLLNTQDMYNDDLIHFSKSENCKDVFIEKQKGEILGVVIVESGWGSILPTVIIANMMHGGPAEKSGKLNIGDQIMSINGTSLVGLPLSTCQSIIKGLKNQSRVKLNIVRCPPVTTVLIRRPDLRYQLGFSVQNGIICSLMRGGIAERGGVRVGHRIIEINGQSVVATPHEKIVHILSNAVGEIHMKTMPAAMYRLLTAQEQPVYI

[5] = biological target: T3, Voltage-gated N-type calcium channel alpha-1B subunit/Amyloid beta A4 precursor protein-binding family A member 1; assay type: protein assay; remark: listed apart in the source
[6] = biological target: T4, Tyrosine-protein phosphatase non-receptor type 22 (Homo sapiens, UniProt Q9Y2R2); test: inhibitors of LYP phosphatase, biochemical, fluorescence intensity, uHTS (AID 1779)
T4 sequence (Q9Y2R2 whole entry): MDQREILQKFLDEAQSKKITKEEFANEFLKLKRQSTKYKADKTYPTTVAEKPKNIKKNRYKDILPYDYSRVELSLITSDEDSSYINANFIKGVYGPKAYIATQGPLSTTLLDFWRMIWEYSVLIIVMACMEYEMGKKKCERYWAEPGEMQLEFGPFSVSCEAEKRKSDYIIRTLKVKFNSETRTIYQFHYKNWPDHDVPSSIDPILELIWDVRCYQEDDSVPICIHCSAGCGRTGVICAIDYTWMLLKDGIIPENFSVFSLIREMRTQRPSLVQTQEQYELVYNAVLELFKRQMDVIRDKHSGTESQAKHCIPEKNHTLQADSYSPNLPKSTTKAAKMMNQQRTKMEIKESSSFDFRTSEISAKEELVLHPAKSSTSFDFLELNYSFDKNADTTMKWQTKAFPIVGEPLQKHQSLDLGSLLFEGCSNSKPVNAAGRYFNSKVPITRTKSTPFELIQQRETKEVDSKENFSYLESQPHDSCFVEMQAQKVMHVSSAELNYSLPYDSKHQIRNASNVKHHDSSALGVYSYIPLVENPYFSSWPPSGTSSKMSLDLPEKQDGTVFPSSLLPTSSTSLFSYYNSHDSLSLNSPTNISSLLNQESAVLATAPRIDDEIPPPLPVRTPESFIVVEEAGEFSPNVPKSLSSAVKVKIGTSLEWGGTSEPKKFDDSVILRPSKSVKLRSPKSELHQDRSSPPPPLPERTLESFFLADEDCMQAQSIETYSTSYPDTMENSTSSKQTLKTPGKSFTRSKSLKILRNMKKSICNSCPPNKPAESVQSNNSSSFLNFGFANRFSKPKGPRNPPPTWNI

[7] = biological target: T4, Tyrosine-protein phosphatase non-receptor type 22; assay type: functional
[8] = biological target: T4, Tyrosine-protein phosphatase non-receptor type 22; assay type: functional; remark: listed apart in the source
[9] = biological target: Eukaryotic translation initiation factor 4E (Mus musculus, UniProt P63073); test: eIF4E–eIF4G protein interaction inhibitors, dose response, biochemical, TR-FRET (AID 855); assay type: functional;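 note: potency for disrupting eIF4E binding to eIF4GI seen as loss of FRET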
Chain of Eukaryotic translation initiation factor 4E (P63073 whole entry): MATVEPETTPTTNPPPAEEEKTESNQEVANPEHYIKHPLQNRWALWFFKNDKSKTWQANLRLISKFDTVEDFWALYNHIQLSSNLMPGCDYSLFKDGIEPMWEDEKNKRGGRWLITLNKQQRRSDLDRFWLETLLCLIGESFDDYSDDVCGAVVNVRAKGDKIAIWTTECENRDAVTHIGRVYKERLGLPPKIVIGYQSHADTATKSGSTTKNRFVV

[10] = NIH-3T3 fibroblast cytotoxicity, dose response, cytotoxicity control, cell-based, fluorescence, Alamar Blue, secondary assay (AID 2327); assay type: functional;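 note: NIH-3T3 mouse fibroblasts cultured with fluconazole at 8 µg/mL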
[11] = biological target: Luciferin 4-monooxygenase (Photinus pyralis, UniProt P08659); test: Counter Screen for Luciferase-based Assay Positives. [Related pubchem assays: 620, 618, 411 ]
[12] = C. albicans growth with fluconazole, confirmation, fluorescence, retest (AID 2467); assay type: functional, cell-based
[13] = cytotoxicity in HPDE-C7 cells, cell-based, fluorescence, HTS (AID 430); assay type: functional; conditions: Homo sapiens
[14] = microbe, parasite or virus in culture; assay type: functional; conditions: Mycobacterium tuberculosis
[15] = cytotoxicity in KRAS-transformed pancreatic duct cells, primary screen, cell-based, fluorescence, HTS (AID 431); assay type: functional; conditions: Homo sapiens;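 note: cell line used: HPDE-C7K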
[16] = growth suppression of PTEN-null colon cells, dose response, cell-based, HCT116 PTEN knockout (AID 1047); assay type: functional;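 note: HCT116 colon tumor cells with PTEN knocked out; cells exposed to compound for 60 hours before readout; potency for loss of cell viability measured by luminescence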
[17] = tested on: HT-1080; test: cytotoxicity in HT1080 fibrosarcoma cells, cell-based, fluorescence readout (AID 620); assay type: functional; conditions: Homo sapiens
[18] = growth suppression of beta-catenin-knockout colon cells, dose response, cell-based, HCT116, human colon tumor (AID 1045); assay type: functional;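 note: HCT116 colon tumor cells with beta catenin knocked out; cells exposed to compound for 60 hours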
[19] = biological target: T5, Ubiquitin-conjugating enzyme E2 N (Homo sapiens, UniProt P61088); assay type: functional;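 note: Dose-response confirmation in a TR-FRET assay detecting UBC13-driven polyubiquitin chain formation, inhibition measured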
T5 sequence (P61088 whole entry): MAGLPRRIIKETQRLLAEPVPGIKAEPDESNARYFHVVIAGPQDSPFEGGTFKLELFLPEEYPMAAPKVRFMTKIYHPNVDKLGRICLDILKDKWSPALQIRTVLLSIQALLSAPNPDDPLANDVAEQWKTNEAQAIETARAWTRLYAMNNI

[20] = biological target: Beta-galactosidase (Escherichia coli, UniProt Q8VNN2); test: beta-galactosidase enzyme inhibitors and activators, dose response, artefact control for CCR6 antagonist project, biochemical, E. coli enzyme, set 3 (AID 504712); assay type: functional
Chain of Beta-galactosidase (Q8VNN2 whole entry): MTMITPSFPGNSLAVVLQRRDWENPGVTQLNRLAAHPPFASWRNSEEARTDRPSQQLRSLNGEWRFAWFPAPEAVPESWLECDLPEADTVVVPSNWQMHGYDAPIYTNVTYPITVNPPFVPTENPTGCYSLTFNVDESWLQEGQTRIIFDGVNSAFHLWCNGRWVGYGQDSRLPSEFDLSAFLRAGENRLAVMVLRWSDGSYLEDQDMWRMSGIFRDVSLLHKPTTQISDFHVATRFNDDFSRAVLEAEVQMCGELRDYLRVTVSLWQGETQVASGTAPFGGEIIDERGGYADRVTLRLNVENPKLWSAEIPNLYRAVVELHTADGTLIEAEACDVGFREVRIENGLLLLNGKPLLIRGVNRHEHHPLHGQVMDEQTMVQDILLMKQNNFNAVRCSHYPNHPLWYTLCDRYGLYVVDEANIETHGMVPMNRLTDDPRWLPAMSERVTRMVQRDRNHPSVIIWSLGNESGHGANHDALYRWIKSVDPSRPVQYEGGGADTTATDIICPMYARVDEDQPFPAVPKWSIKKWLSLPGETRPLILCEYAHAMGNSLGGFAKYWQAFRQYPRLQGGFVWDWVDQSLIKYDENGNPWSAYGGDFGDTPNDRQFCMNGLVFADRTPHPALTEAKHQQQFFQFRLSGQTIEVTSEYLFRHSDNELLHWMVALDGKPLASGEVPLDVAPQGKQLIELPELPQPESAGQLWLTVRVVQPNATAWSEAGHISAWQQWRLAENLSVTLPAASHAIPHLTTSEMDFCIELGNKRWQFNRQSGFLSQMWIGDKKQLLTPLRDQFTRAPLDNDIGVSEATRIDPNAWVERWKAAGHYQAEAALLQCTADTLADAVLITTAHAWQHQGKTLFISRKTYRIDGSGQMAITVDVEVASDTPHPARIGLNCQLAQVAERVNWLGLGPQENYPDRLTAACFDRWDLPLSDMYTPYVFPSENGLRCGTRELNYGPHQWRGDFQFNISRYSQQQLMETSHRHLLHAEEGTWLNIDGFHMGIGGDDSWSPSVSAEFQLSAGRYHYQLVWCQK

[21] = biological target: Nonstructural protein 1 (Influenza A virus, UniProt Q194T2); assay type: functional, Influenza A virus (A/California/07/2009(H1N1))
Chain of Nonstructural protein 1 (Q194T2 whole entry): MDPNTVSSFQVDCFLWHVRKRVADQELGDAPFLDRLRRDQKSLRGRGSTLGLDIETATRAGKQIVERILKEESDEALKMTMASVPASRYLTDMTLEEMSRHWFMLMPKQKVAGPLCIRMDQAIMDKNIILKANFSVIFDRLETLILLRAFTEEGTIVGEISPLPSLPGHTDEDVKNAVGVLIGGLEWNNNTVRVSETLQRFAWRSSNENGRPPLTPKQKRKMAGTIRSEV

[22] = biological target: Voltage-dependent T-type calcium channel subunit alpha-1H (Homo sapiens, UniProt O95180); test: Cav3.2 T-type channel inhibitors, cell-based, synthetic library set 1, calcium flux (AID 493022); assay type: functional
[23] = biological target: Large T antigen (Simian virus 40, UniProt P03070); assay type: functional, Betapolyomavirus macacae;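 note: Confirmatory-stage PubChem screen for compounds that inhibit SV40 T antigen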
[24] = biological target: DNA dC->dU-editing enzyme APOBEC-3A (Homo sapiens, UniProt P31941); test: APOBEC3A DNA deaminase inhibitors, dose response, biochemical (AID 504722); assay type: functional
Chain of DNA dC->dU-editing enzyme APOBEC-3A (P31941 whole entry): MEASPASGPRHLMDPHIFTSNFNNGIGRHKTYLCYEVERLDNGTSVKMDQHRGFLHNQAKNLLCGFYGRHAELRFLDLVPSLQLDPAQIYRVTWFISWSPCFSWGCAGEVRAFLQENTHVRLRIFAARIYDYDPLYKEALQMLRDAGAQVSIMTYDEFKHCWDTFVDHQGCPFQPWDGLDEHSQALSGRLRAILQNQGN

[25] = biological target: DNA dC->dU-editing enzyme APOBEC-3G (Homo sapiens, UniProt Q9HC16); test: Dose Response confirmation of small molecule APOBEC3G DNA Deaminase Inhibitors via a fluorescence-based single-stranded DNA deaminase assay. [Related pubchem assays (depositor defined):AID493012, AID493028]; assay type: functional
[26] = biological target: FAD-linked sulfhydryl oxidase ALR (Homo sapiens, UniProt P55789); test: inhibitors of human ALR sulfhydryl oxidase, dose response, biochemical, H2O2 detection, luminescence, cherry-pick (AID 493248)
Chain of FAD-linked sulfhydryl oxidase ALR (P55789 whole entry): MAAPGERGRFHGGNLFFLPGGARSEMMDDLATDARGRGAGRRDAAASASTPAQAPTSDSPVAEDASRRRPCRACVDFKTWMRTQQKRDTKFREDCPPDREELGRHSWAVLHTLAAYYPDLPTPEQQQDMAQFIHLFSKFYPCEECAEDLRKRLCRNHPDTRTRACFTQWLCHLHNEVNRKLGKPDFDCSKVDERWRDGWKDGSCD

SMILES: Cc1cccc(/C=N/NC(=O)c2cc(Br)ccc2O)n1
- EC50 [1]: 4.22 µM (active)

SMILES: CCOc1cc(/C=N/NC(=O)c2ccc(-c3csc(Nc4ccc(C)cc4)n3)cc2)ccc1OCC(=O)O
- IC50 [2]: 7.29 µM (active)
- IC50 [3]: 3.93 µM (active)
- IC50 [4]: 11.1 µM (active)
- IC50 [5]: 49.1 µM (active)
- IC50 [6]: 8.71 µM (active)
- IC50 [7]: 6.63 µM (active)
- IC50 [8]: 4.68 µM (active)
- IC50 [9]: 50 µM (inactive)

SMILES: CN1CCN(CC(=O)N2CCn3c4c(c5cc(C6CCCCC6)ccc53)CCCC42)CC1 (stereo unspecified)
- EC50 [10]: > 150 µM (inconclusive)
- EC50 [11]: 0.84 µM (active)
- EC50 [12]: > 38 µM (not active)
- EC50 [13]: 3.48 µM (active)
- CC50 [14]: 6.93 µM (active)
- EC50 [15]: 4.39 µM (active)
- EC50 [16]: 3.99 µM (active)
- EC50 [17]: 14.7 µM (active)
- EC50 [18]: 3.56 µM (active)
- IC50 [19]: > 20 µM (inactive)
- IC50 [20]: > 66.6 µM (inactive)
- IC50 [21]: 18.9 µM (active)

SMILES: O=C(COc1ccccc1Cl)Nc1nnc(-c2ccc3c(c2)OCO3)o1
- EC50 [22]: 3 µM (active)

SMILES: COc1cccc(/C=N/n2c(S)nnc2-c2cc(C)[nH]n2)c1O
- IC50 [23]: 16 µM (active)
- IC50 [24]: > 100 µM (inactive)
- IC50 [25]: 4.07 µM (active)
- AC50 [26]: 3.54 µM (active)

Source: ChEMBL document CHEMBL1201862, “PubChem BioAssay data set” (2004)
